“Also recorded” adds a separate entry of the source.
What was measured:
human 5-HT4R = target: T1, human 5-HT4R (Homo sapiens, UniProt Q13639); experiment: 5-HT4R radioligand displacement assay ([3H]-GR113808); type: binding
T1 construct: purchased Eurofins HTS110M
Experimental: All the synthesized phenolic derivatives and their carbamates were evaluated as potential inhibitors of human AChE, using the Ellman assay, as well as potential ligands for human 5-HT4R using a radioligand displacement assay. […].
For competition studies, 2.5 µg of proteins (5-HT4(b) membrane preparations, HTS110M, Eurofins. Eurofins’ 5-HT4(b) membrane preparations are crude membrane preparations made from their proprietary stable recombinant cell lines to ensure high-level of GPCR surface expression.) were incubated in duplicate at 25 °C for 60 min in the absence or the presence of 10^−6 or 10^−8M of each drug (9 was used as a reference standard) and 0.2 nM [^3H]-GR113808 (NET 1152, Perkin Elmer) in 25 mM Tris buffer (pH 7.4, 25 °C). At the end of the incubation, homogenates were filtered through Whatman GF/C filters (Alpha Biotech) pre-soaked with 0.5% polyethylenimine using a Brandel cell harvester. Filters were subsequently washed three times with 1 mL of ice-cold 25 mM Tris buffer (pH 7.4, 4 °C). Non-specific binding was evaluated in parallel in the presence of 30 µM serotonin. For some of these compounds, affinity constants were calculated from five-point inhibition curves using the GraphPad Prism 6 software and expressed as Ki ± SD.

AChE = AChE (Homo sapiens, UniProt P22303); experiment: Kinetic study for AChE inhibition (Lineweaver-Burk plots); type: biochemical
Experimental: To try to clarify the mechanism of action of 19 and 20, reciprocal plots of 1/velocity vs. 1/[substrate] were constructed at different concentrations of the substrate acetylthiocholine iodide (0.01–1 mM) by using the spectrometric method by Ellman et al.. Four concentrations of 19 were selected for the studies: 10^−6, 10^−7, 10^−8 and 10^−9 M for the kinetic analysis of AChE inhibition. Four concentrations of 20 were selected for the studies: 10^−5, 10^−6, 10^−7 and 10^−8 M for the kinetic analysis of AChE inhibition. The plots were assessed by a weighted least squares analysis that assumed the variance of velocity (ν) to be a constant percentage of ν for the entire dataset. Slopes of these reciprocal plots were then plotted against the concentration of 19 and 20 in a weighted analysis.

[1] = Parallel artificial membrane permeability assay (PAMPA-BBB)
Experimental: The ability of carbamate 20 to cross the BBB was assessed using a parallel artificial membrane permeability assay experiment. […] The parallel artificial membrane permeability assay (PAMPA) blood–brain barrier (BBB) experiments were conducted using the Pampa Explorer Kit (Pion Inc., Billerica, MA, USA) according to the protocol provided by the manufacturer. […] The PAMPA sandwich was assembled and allowed to incubate at room temperature for 4 h without stirring. The sandwich was then separated, and the UV-visible spectra were measured for both the donor and receiver wells with the microplate reader (Tecan Infinit M200).

(ee)AChE = target: T2, (ee)AChE (Electrophorus electricus, UniProt O42275); experiment: AChE-dependent decarbamoylation (UPLC, LCMS); type: biochemical; details: 5 µM, PBS pH 7.4, 24 h
T2 construct: purchased Sigma Aldrich
Experimental: The in vitro decarbamoylation of 20 in the presence of AChE was established according to a new analytical method developed by Alix et al.. A large excess of Electrophorus electricus (eel)AChE was added to a solution of 20 in a phosphate-buffered saline (PBS) buffer (pH 7.4) at 25 °C. After 24 h of incubation, the solution was extracted by ethyl acetate, evaporated and solubilized in acetonitrile, and then analyzed by UPLC and LCMS. Owing to its high homology with the active-site sequence of the human AChE and its commercial availability, (ee)AChE is commonly used for in vitro assays and was chosen for this study.
The HPLC analyses were performed using an Agilent pump 1290, an autosampler 1290 and a diode array UV detector 1260 (Agilent technologies, Santa Clara, CA, USA). A reversed phase column C18 (Zorbax1 Eclipse Plus RRHD, 1.8 µm, 2.1 × 50 mm, Agilent) has been used for all components. A binary pump was used and the mobile phase was always composed of a mixture of (A) water (0.1% formic acid) and (B) acetonitrile (0.1% formic acid). Solutions of compound 19 and 20 were prepared in a PBS buffer (pH 7.4). […] The crude product was submerged in 50 µL of ACN, then analyzed by UPLC and LC-MS.

[2] = CNS-activity and acute toxicity test; details: male, NMRI, mouse, in vivo, ip
Experimental: (§1) Animals. Adult male NMRI mice (3 months old, weighing 35–40 g) from Janvier labs (Le Genest-Saint-Isle, France) were used to perform experiments. Mice were housed by ten in standard polycarbonate cages in standard controlled conditions (22 ± 2 °C, 55 ± 10% humidity) with a reversed 12 h light/dark cycle (light on at 7 pm). Food and water were available ad libitum in the home cage. All experiments were conducted (between 9 am and 3 pm) during the active–dark phase of the cycle and were in agreement with the European Directives and French law on animal experimentation (personal authorization n° 14–17 for MB and 14–60 for TF).
(§2) CNS-activity and acute toxicity test. Behavioral and neurological changes induced by graded doses (1, 10, 100 mg/kg) of the tested derivatives were evaluated in mice, in groups of four, by a standardized observation technique at different times (30 min, 3 and 24 h) after intraperitoneal administration. […] The approximate DL50 of the compounds were also calculated through the quantification of mortality after 24 h. Amphetamine (2 mg/kg) and chlorpromazine (10 mg/kg) were used as the stimulant and depressive references, respectively.

mice [3] = experiment: CNS-activity and acute toxicity test; details: mice, IP
Experimental: as §1, §2

mice [4] = experiment: Spontaneous alternation (Y maze), MK801-induced deficit; type: in vivo, NMRI mice; details: 1 mg/kg IP 30 min before test, MK801 0.1 mg/kg SC
Experimental: as §1
Spatial working memory. The antiamnesic activity of the tested compounds was evaluated by a reversal of deficit on spontaneous alternation behavior in the Y maze test. […] The Y maze made of grey plastic consisted of three equally-spaced arms (21-cm long, 7-cm wide with walls 15-cm high). The mouse was placed at the end of one of the arms and allowed to move freely through the maze during a 5 min session, while the sequence of arm entries was recorded by an observer. An arm entry was scored when all four feet crossed into the arm. An alternation was defined as entries into all three arms on a consecutive occasion.
Pharmacological treatments.

Chain of AChE (P22303 32-617 isoform P22303-2 limits assumed): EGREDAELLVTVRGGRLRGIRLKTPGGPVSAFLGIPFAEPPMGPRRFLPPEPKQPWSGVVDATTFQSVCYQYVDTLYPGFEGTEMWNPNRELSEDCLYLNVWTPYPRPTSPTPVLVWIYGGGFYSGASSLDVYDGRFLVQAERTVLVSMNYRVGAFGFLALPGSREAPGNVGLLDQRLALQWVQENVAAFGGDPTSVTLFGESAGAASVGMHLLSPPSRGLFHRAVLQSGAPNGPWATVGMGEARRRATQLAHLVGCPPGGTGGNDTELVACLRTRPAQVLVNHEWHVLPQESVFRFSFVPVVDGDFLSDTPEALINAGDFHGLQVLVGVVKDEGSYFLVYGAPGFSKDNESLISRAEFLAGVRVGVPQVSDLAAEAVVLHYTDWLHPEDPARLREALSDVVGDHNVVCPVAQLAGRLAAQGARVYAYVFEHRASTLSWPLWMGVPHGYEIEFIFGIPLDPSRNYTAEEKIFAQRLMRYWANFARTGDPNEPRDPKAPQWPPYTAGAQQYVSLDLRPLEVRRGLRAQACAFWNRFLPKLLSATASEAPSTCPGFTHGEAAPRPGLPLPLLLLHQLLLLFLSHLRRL
T1 sequence (Q13639 whole entry): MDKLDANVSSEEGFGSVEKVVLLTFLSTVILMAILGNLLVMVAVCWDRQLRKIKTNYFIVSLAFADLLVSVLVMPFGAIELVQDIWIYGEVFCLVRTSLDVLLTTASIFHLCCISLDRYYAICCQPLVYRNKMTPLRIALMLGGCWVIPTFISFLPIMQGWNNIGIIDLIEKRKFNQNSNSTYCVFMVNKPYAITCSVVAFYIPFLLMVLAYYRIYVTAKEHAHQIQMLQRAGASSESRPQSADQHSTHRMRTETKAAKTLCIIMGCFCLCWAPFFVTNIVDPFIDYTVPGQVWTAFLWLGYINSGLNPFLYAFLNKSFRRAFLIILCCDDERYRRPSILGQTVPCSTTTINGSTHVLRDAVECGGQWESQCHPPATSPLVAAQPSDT
T2 sequence (O42275 24-633): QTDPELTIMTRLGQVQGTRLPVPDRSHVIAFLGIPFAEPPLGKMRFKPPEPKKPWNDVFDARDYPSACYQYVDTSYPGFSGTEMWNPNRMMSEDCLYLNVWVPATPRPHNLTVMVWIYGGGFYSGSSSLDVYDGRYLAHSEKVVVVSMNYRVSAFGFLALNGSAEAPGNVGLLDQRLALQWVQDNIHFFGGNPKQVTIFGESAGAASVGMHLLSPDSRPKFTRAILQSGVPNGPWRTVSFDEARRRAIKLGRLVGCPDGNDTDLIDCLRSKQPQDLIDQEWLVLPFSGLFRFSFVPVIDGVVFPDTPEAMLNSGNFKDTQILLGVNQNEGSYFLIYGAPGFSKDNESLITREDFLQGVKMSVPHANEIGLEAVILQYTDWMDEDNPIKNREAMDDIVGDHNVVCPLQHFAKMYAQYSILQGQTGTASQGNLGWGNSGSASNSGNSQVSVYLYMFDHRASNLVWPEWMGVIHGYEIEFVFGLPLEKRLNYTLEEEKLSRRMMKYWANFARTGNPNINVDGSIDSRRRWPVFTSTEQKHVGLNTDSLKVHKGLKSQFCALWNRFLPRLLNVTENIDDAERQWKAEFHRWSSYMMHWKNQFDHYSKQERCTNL

In the case of `CCN(C)C(=O)Oc1cccc(CN2CCC(CCC(=O)c3cc(Cl)c(N)cc3OC)CC2)c1.O=C(O)/C=C/C(=O)O` [Compound 20, [3-[[4-[3-(4-Amino-5-chloro-2-methoxyphenyl)-3-oxopropyl]-1-piperidyl]methyl]phenyl] N-ethyl-N-methyl-carbamate fumaric acid salt], the “(h)5-HT4R % Inhibition at 10^−8 M” value (human 5-HT4R; 10^−8 M) is reported as 16%, the 5-HT4R affinity (human 5-HT4R; result in words) is reported as “devoid of any activity towards 5-HT4R” and the “mechanism of AChE inhibition” value (AChE) is reported as “mixed-type AChE inhibitor; also recorded: mixed-type inhibition”. The LogPe ([1]; PAMPA effective permeability coefficient, pH 7.4, 4 h) was −4.39, the Papp at 4 h, 100 μM ([1]; PAMPA, pH 7.4) was 40.7 ×10⁻⁶ cm/s and the “brain penetration (BBB crossing)” value ([1]; classification from PAMPA) was “good brain penetration”. For the same compound, the “decarbamoylation in the presence of (ee)AChE” value ((ee)AChE; 250 U/mL (ee)AChE) was “decarbamoylation of 20 and release of 4”, the “chemical conversion in PBS buffer without (ee)AChE” value ((ee)AChE; negative control) was “not chemically converted into 4” and the LD50 at 24 h [2] was > 100 mg/kg. The “Symptoms (Subtoxic Doses)” value (mice [3]; 100 mg/kg) was 100, tremors, hypoactivity full recovery after 24h, the “Symptoms (Subtoxic Doses)” value (mice [3]; 1–10 mg/kg) was 1–10, no symptoms and the “percentage of spontaneous alternation” value (mice [4]) was “significantly different from the value of the chance level”.

Reference: publication PMC6696315, “Inhibiting Acetylcholinesterase to Activate Pleiotropic Prodrugs with Therapeutic Interest in Alzheimer’s Disease” (Molecules, 2019)
